Test results reported in ChEMBL document CHEMBL3885861, “Open TG-GATES”.

Organism: Rattus norvegicus
Assay: Open TG-GATES - Regimen: Single
Type: toxicity, organism-based, Sprague-Dawley
Design: regimen Single, gender Male, age 6 weeks
Details: in vivo, ip, route intraperitoneal injection; for APTT / Bas / Eos / Fbg / Hb / Ht / Lym / MCH / MCHC / MCV / Mono / Neu / PT / Plat / RBC / Ret / WBC: tissue Blood; for KIDNEY_L / KIDNEY_R / KIDNEY_TOTAL: tissue Kidney; for LIVER: tissue Liver; for A/G / ALP / ALT / AST / BUN / CRE / Ca / Cl / DBIL / GLC / IP / K / LDH / Na / PL / RALB / TBIL / TC / TG / TP / gamma-GTP: tissue Plasma
[1] = 0 mg/kg, 3 h, dose level Control
[2] = 0 mg/kg, 6 h, dose level Control
[3] = 0 mg/kg, 9 h, dose level Control
[4] = 0 mg/kg, 24 h, dose level Control
[5] = 100 mg/kg, 24 h, dose level Low

## N[C@H]1C(O)O[C@H](CO)[C@@H](O)[C@@H]1O (some centres undefined) [GLUCOSAMINE]
[1]
  TERMINAL_BW: 190.4 g
  APTT: 17.1 s
  Bas: 0.2%
  Eos: 0.6%
  Fbg: 273.4 mg/dL
  Hb: 12.6 g/dL
  Ht: 38.6%
  Lym: 73.6%
  MCH: 20.7 pg
  MCHC: 32.7%
  MCV: 63.4 fL
  Mono: 3.8%
  Neu: 20.2%
  PT: 15.5 s
  Plat: 111.6 x10_4/uL
  RBC: 609.4 x10_4/ul
  Ret: 9.4%
  WBC: 98.5 x10_2/uL
  KIDNEY_L: 0.9 g
  KIDNEY_R: 0.9 g
  KIDNEY_TOTAL: 1.7 g
  LIVER: 8.4 g
  A/G: 0.9
  ALP: 1386.8 IU/L
  ALT: 42.2 IU/L
  AST: 77 IU/L
  BUN: 9.6 mg/dL
  CRE: 0.2 mg/dL
  Ca: 10.5 mg/dL
  Cl: 106.4 meq/L
  DBIL: 0.01 mg/dL
  GLC: 175.4 mg/dL
  IP: 9.4 mg/dL
  K: 4.4 meq/L
  LDH: 61.2 IU/L
  Na: 142.2 meq/L
  PL: 141.6 mg/dL
  RALB: 2.4 g/dL
  TBIL: 0.052 mg/dL
  TC: 79.2 mg/dL
  TG: 47.8 mg/dL
  TP: 5.2 g/dL
  gamma-GTP: 0.8 IU/L
[2]
  TERMINAL_BW: 188.5 g
  APTT: 18.8 s
  Bas: 0.2%
  Eos: 0%
  Fbg: 298.6 mg/dL
  Hb: 12.9 g/dL
  Ht: 39.6%
  Lym: 62.6%
  MCH: 21.3 pg
  MCHC: 32.6%
  MCV: 65.5 fL
  Mono: 2%
  Neu: 34%
  PT: 15.8 s
  Plat: 113.1 x10_4/uL
  RBC: 604.2 x10_4/ul
  Ret: 9.4%
  WBC: 79.2 x10_2/uL
  KIDNEY_L: 0.8 g
  KIDNEY_R: 0.8 g
  KIDNEY_TOTAL: 1.6 g
  LIVER: 7.8 g
  A/G: 0.9
  ALP: 1323.4 IU/L
  ALT: 36.2 IU/L
  AST: 70.2 IU/L
  BUN: 8.2 mg/dL
  CRE: 0.2 mg/dL
  Ca: 10.3 mg/dL
  Cl: 106.8 meq/L
  DBIL: 0.008 mg/dL
  GLC: 178.6 mg/dL
  IP: 9.8 mg/dL
  K: 4 meq/L
  LDH: 51.8 IU/L
  Na: 142.4 meq/L
  PL: 144 mg/dL
  RALB: 2.5 g/dL
  TBIL: 0.052 mg/dL
  TC: 82.8 mg/dL
  TG: 41.4 mg/dL
  TP: 5.3 g/dL
  gamma-GTP: 1 IU/L
[3]
  TERMINAL_BW: 185.1 g
  APTT: 17 s
  Bas: 0.2%
  Eos: 0.8%
  Fbg: 298.8 mg/dL
  Hb: 13 g/dL
  Ht: 40.1%
  Lym: 66.6%
  MCH: 21.2 pg
  MCHC: 32.5%
  MCV: 65.3 fL
  Mono: 2.4%
  Neu: 29.6%
  PT: 15.7 s
  Plat: 109.5 x10_4/uL
  RBC: 615 x10_4/ul
  Ret: 9.4%
  WBC: 85.2 x10_2/uL
  KIDNEY_L: 0.8 g
  KIDNEY_R: 0.8 g
  KIDNEY_TOTAL: 1.6 g
  LIVER: 7.2 g
  A/G: 0.9
  ALP: 1439.4 IU/L
  ALT: 37.6 IU/L
  AST: 78 IU/L
  BUN: 7.6 mg/dL
  CRE: 0.2 mg/dL
  Ca: 10.4 mg/dL
  Cl: 107.4 meq/L
  DBIL: 0.014 mg/dL
  GLC: 157.4 mg/dL
  IP: 10.3 mg/dL
  K: 3.6 meq/L
  LDH: 51.6 IU/L
  Na: 143.2 meq/L
  PL: 131.4 mg/dL
  RALB: 2.5 g/dL
  TBIL: 0.078 mg/dL
  TC: 79.4 mg/dL
  TG: 18.4 mg/dL
  TP: 5.3 g/dL
  gamma-GTP: 0.6 IU/L
[4]
  TERMINAL_BW: 201.5 g
  APTT: 17.2 s
  Bas: 0.2%
  Eos: 1.4%
  Fbg: 293.6 mg/dL
  Hb: 12.9 g/dL
  Ht: 38.9%
  Lym: 77.2%
  MCH: 20.8 pg
  MCHC: 33.1%
  MCV: 62.6 fL
  Mono: 2.8%
  Neu: 17.2%
  PT: 16.2 s
  Plat: 117.8 x10_4/uL
  RBC: 622.4 x10_4/ul
  Ret: 8.9%
  WBC: 96.4 x10_2/uL
  KIDNEY_L: 0.9 g
  KIDNEY_R: 0.9 g
  KIDNEY_TOTAL: 1.8 g
  LIVER: 9 g
  A/G: 0.9
  ALP: 1430 IU/L
  ALT: 39.8 IU/L
  AST: 76.2 IU/L
  BUN: 13.6 mg/dL
  CRE: 0.2 mg/dL
  Ca: 10.4 mg/dL
  Cl: 105.8 meq/L
  DBIL: 0.012 mg/dL
  GLC: 185.2 mg/dL
  IP: 8.3 mg/dL
  K: 4.3 meq/L
  LDH: 108.2 IU/L
  Na: 142 meq/L
  PL: 151.6 mg/dL
  RALB: 2.5 g/dL
  TBIL: 0.04 mg/dL
  TC: 80.4 mg/dL
  TG: 69.8 mg/dL
  TP: 5.5 g/dL
  gamma-GTP: 0.4 IU/L
100 mg/kg, 3 h, dose level Low
  TERMINAL_BW: 188.6 g
  APTT: 16.4 s
  Bas: 0.4%
  Eos: 1%
  Fbg: 267.2 mg/dL
  Hb: 13.3 g/dL
  Ht: 41.3%
  Lym: 75%
  MCH: 21.3 pg
  MCHC: 32.1%
  MCV: 66.4 fL
  Mono: 3.2%
  Neu: 19.6%
  PT: 15.7 s
  Plat: 114.1 x10_4/uL
  RBC: 623.2 x10_4/ul
  Ret: 9.9%
  WBC: 83.2 x10_2/uL
  KIDNEY_L: 0.8 g
  KIDNEY_R: 0.8 g
  KIDNEY_TOTAL: 1.6 g
  LIVER: 8.3 g
  A/G: 0.9
  ALP: 1288 IU/L
  ALT: 42.2 IU/L
  AST: 84.6 IU/L
  BUN: 10.4 mg/dL
  CRE: 0.2 mg/dL
  Ca: 10.6 mg/dL
  Cl: 108.4 meq/L
  DBIL: 0.01 mg/dL
  GLC: 171.6 mg/dL
  IP: 9.2 mg/dL
  K: 4 meq/L
  LDH: 70 IU/L
  Na: 143.4 meq/L
  PL: 147.8 mg/dL
  RALB: 2.5 g/dL
  TBIL: 0.054 mg/dL
  TC: 80.8 mg/dL
  TG: 36.8 mg/dL
  TP: 5.2 g/dL
  gamma-GTP: 1 IU/L
100 mg/kg, 6 h, dose level Low
  TERMINAL_BW: 186.1 g
  APTT: 17.1 s
  Bas: 0%
  Eos: 0.8%
  Fbg: 259.4 mg/dL
  Hb: 12.8 g/dL
  Ht: 39.3%
  Lym: 67%
  MCH: 21.5 pg
  MCHC: 32.7%
  MCV: 65.9 fL
  Mono: 3.6%
  Neu: 27.6%
  PT: 16.9 s
  Plat: 114.6 x10_4/uL
  RBC: 596 x10_4/ul
  Ret: 9.9%
  WBC: 82.3 x10_2/uL
  KIDNEY_L: 0.8 g
  KIDNEY_R: 0.8 g
  KIDNEY_TOTAL: 1.7 g
  LIVER: 7.7 g
  A/G: 0.9
  ALP: 1431.6 IU/L
  ALT: 49.6 IU/L
  AST: 94.2 IU/L
  BUN: 8.8 mg/dL
  CRE: 0.2 mg/dL
  Ca: 10.1 mg/dL
  Cl: 107.8 meq/L
  DBIL: 0.006 mg/dL
  GLC: 158 mg/dL
  IP: 9.5 mg/dL
  K: 3.9 meq/L
  LDH: 58.6 IU/L
  Na: 143.2 meq/L
  PL: 144.2 mg/dL
  RALB: 2.4 g/dL
  TBIL: 0.054 mg/dL
  TC: 80.2 mg/dL
  TG: 40.2 mg/dL
  TP: 5.1 g/dL
  gamma-GTP: 1 IU/L
100 mg/kg, 9 h, dose level Low
  TERMINAL_BW: 185.8 g
  APTT: 18.8 s
  Bas: 0%
  Eos: 0.8%
  Fbg: 289.4 mg/dL
  Hb: 12.9 g/dL
  Ht: 39.8%
  Lym: 68.4%
  MCH: 21 pg
  MCHC: 32.3%
  MCV: 64.8 fL
  Mono: 1.8%
  Neu: 28.4%
  PT: 16.1 s
  Plat: 104 x10_4/uL
  RBC: 614.4 x10_4/ul
  Ret: 9.1%
  WBC: 60.7 x10_2/uL
  KIDNEY_L: 0.8 g
  KIDNEY_R: 0.8 g
  KIDNEY_TOTAL: 1.7 g
  LIVER: 7.4 g
  A/G: 0.9
  ALP: 1454.4 IU/L
  ALT: 39 IU/L
  AST: 83.4 IU/L
  BUN: 8 mg/dL
  CRE: 0.2 mg/dL
  Ca: 10.4 mg/dL
  Cl: 107 meq/L
  DBIL: 0.008 mg/dL
  GLC: 180 mg/dL
  IP: 10.4 mg/dL
  K: 3.6 meq/L
  LDH: 54.8 IU/L
  Na: 144 meq/L
  PL: 142.2 mg/dL
  RALB: 2.5 g/dL
  TBIL: 0.056 mg/dL
  TC: 78.8 mg/dL
  TG: 35.6 mg/dL
  TP: 5.3 g/dL
  gamma-GTP: 1 IU/L
[5]
  TERMINAL_BW: 202.9 g
  APTT: 18.1 s
  Bas: 0.2%
  Eos: 1.6%
  Fbg: 253.2 mg/dL
  Hb: 12.8 g/dL
  Ht: 39.2%
  Lym: 69.2%
  MCH: 20.8 pg
  MCHC: 32.7%
  MCV: 63.6 fL
  Mono: 3%
  Neu: 25.2%
  PT: 16.2 s
  Plat: 105.9 x10_4/uL
  RBC: 616.8 x10_4/ul
  Ret: 8.6%
  WBC: 93.3 x10_2/uL
  KIDNEY_L: 0.9 g
  KIDNEY_R: 0.9 g
  KIDNEY_TOTAL: 1.7 g
  LIVER: 9 g
  A/G: 0.9
  ALP: 1735.2 IU/L
  ALT: 51.8 IU/L
  AST: 81.4 IU/L
  BUN: 14.2 mg/dL
  CRE: 0.2 mg/dL
  Ca: 10.6 mg/dL
  Cl: 107.4 meq/L
  DBIL: 0.014 mg/dL
  GLC: 181.6 mg/dL
  IP: 8.5 mg/dL
  K: 4.2 meq/L
  LDH: 134.8 IU/L
  Na: 143.8 meq/L
  PL: 160.4 mg/dL
  RALB: 2.6 g/dL
  TBIL: 0.036 mg/dL
  TC: 83.4 mg/dL
  TG: 76.6 mg/dL
  TP: 5.6 g/dL
  gamma-GTP: 1 IU/L
